Reference: patent US20220146500A1, “COMPOSITIONS AND METHODS FOR ENHANCING MUCOSAL IMMUNITY” (Yale University, priority 2019, published 2022)

Key:
C. muridarum = conditions: upper reproductive tract epithelial cell line; cited from earlier work
polyclonal T cell lines = experiment: Culture of Chlamydia-specific polyclonal T cell lines with TGFβ1, IL-13 in supernatant after anti-CD3 activation; assay type: cell-based, mouse
Description: FIG. 9 is a histogram depicting polyclonal T cell lines with fading IL-13 production cultured as per usual protocol and, in parallel, the usual protocol plus 10 ng/ml TGFβ1. At the end of one week the T cell lines were activated with immobilized anti-CD3 and IL-13 levels measured in culture supernatant. […] It was also noted that expansions in TGFβ1 conditions yielded˜50% more cells per well.
Conventional multifunction Chlamydia-specific Th1 clone 4uvmo-3 was previously described (Jayarapu et al., 2009, Infect Immun 77:4469-4479). For the new B-cell APC-derived T cells C57BL/6 mice were treated with 2.5 mg of medroxyprogesterone (Pfizer) delivered subcutaneously, then infected 7 days later with 5×10^4 IFU C. muridarum. Mice that cleared infection, >6 weeks post-infection, were used as the source of immune B and T cells. Initial Chlamydia-specific immune-B-cell-derived polyclonal T cell populations and clones were derived as follows. Splenocytes were harvested from immune mice. Immune B cells were purified from a portion of those splenocytes by “untouched” magnetic bead separation (Miltenyi Biotech). Immune B cells were pulsed with UV-MoPn (3.5×10^6 IFU equivalents per 7.5×10^5 B cells suspended at 7.5×10^6/ml; ˜5 IFU/cell) or soluble antigen (7.5 ul per 7.5×10^5 B cells suspended at 7.5×10^6/ml) for 1 h at 37° C. Antigen-pulsed immune B cells were transferred to 7.5 cc of “RPMI complete media”, pelleted, media containing antigen removed, then washed two more times with 7.5 cc of media (˜400,000-fold) to eliminate all non-cell bound or internalized Chlamydia antigen; the purpose of extended washing was to ensure that antigen presentation was limited to immune B cells. Primary stimulation wells were setup with 2.5×10^6 immune splenocytes plus 7.5×10^5 antigen-pulsed immune B cells in 0.75 ml “RPMI complete media” supplemented with recombinant cytokines and conditioned media as previously described (Johnson et al., 2014, Immunology 142:248-257); later T cell derivations during the course of the project included addition of 5 ng/ml recombinant murine TGFβ1 to the media. Limiting dilution cloning was done in media supplemented with recombinant cytokines/conditioned media with 10-20 ng/ml TGFβ1. Re-stimulation/maintenance of T cell clones was done weekly in 48-well plates by adding 100-200 k T cell clone cells to 1.5×10^6 irradiated naive splenocytes and 7.5×10^5 irradiated relevant-antigen-pulsed/washed immune B cells as feeders in media supplemented with recombinant cytokines/conditioned media including 2.5-10 ng/ml TGFβ1. Recombinant mouse cytokines were purchased from the same vendor (R&D Systems; Minneapolis, Minn.) except for TGFP1 (Ebioscience, San Diego, Calif.). […]

Substance | effect on C. muridarum replication (C. muridarum) | IL-13 production after one week of culture (polyclonal T cell lines; 10 ng/ml TGFβ1, lines with fading IL-13 production, anti-CD3 activation) | more cells per well in expansions (polyclonal T cell lines; TGFβ1 conditions versus usual protocol) [%] | durable IL-13 production with increasing passage number (polyclonal T cell lines; immune-B-cell-APC-derived polyclonal T cell lines) | IL-13 production (polyclonal T cell lines; immune-splenocyte-APC-derived T cell lines)
IL-13: Th2 cytokine | modestly enhances C. muridarum replication | – | – | – | –
TGFβ1: recombinant murine TGFβ1 | – | With the exception of B2 all the lines made more IL-13 | ~50 | required addition of TGFβ1 to the media | did not result in IL-13 production
